“And” between values parts separate entries of the source, which are not always exact repeats. Equal values may be shown once.
Experiments:
[1] = Stability of arecoline in solution; type: physicochemical; settings: alkaline buffers
[2] = Dissociation to the free base in buffer; type: physicochemical; settings: pH 10 buffer
From the text: (§1) The partion coefficient (K) of a compound between an aqueous phase and mineral oil has been used as an indication of its potential to diffuse across skin. Permeability appears to be optimal when the partition coefficient is 1. Arecoline in pH 10 buffer (99.9% dissociation to the free base) yielded partition coefficients of 0.756 and 0.654 for concentrations of 1.0 M and 0.01 M, respectively. Thus, arecoline in its free base form is expected to have good in vitro transdermal flux.

[3] = Partition coefficient (K) between aqueous phase and mineral oil; type: physicochemical; settings: pH 10 buffer
From the text: as §1

[4] = Transdermal diffusion (flux) of aqueous arecoline through human cadaver skin, Franz diffusion cell; type: in vitro ADME
Protocol: In order further to test the permeability of arecoline to human skin, the transdermal diffusion of aqueous arecoline was monitored using human cadaver skin mounted in a Franz diffusion cell; see Current Problems in Dermatology, 7, 58 (1978) and the description of Franz diffusion cells and apparatus published by the Crown Glass Company, a copy of which may be found in the file history of this case. The flux, J, of each solution was calculated from a plot of change in concentration versus time.
The transdermal diffusion of arecoline was studied in several aqueous buffers from pH values of 6.4 to 9.0.
Most of the skin samples were obtained from the back area of human cadavers. There was no systematic study to determine if the choice of donor-side would change the rate; however, it is presumed that the rate will be fastest in portions of the anatomy where the stratum corneum is relatively thin (chest, back, anterior forearm) and slowest where the stratum corneum is thickest (heel of hand, bottom of foot).
Franz diffusion cells utilize the finite dose technique of in vitro drug delivery. Human cadaver skin was mounted in a diffusion chamber where it remined in constant contact with solution on both sides. The stratum corneum was in contact with a thin layer of concentrated drug in solution (donor side). The receiver side contained a constantly stirred, isotonic saline solution maintained at 32° C. Diffusion of the compound was monitored by removing aliquots from the receiver side and analyzing these samples by HPLC.
The human skin used in all experiments was obtained from a medical school. All cadavers were refrigerated at death and excision was performed within 24 hours post-mortem. The skin was first treated with Betadine surgical scrub (Povidone-Iodine solution) and surfactant (the skin was scrubbed if dirty), rinsed with sterile water and then with Betadine rinse solution. The skin was then air-dried and swabbed with mineral oil prior to excision. A dermatome was used for excising the skin to […]. (-350 microns) thickness. Saline solution was used to rinse the excess mineral oil from the skin prior to treatment with Eagle's minimole essential medium (minerals, amino acids and sugars). To this solution, 15% glycerol was added and the skin was allowed to set for two hours. It was then removed from solution, packaged and frozen in liquid N2. The samples, packed in dry ice were shipped in styrofoam containers and kept frozen until use.
For the flux experiments, skin samples were removed from the freezer and thawed immediately prior to use. The samples were examined visually for any tears or holes, then cut into smaller pieces, peeled from the gauze backing and mounted across the diffusion chamber with the stratum corneum side up. The donor-side cap was placed on top and the unit was clamped in place. The receiver-side was filled with a saline solution and stirred. The material in the receiver-side was sterile normal saline solution, which was adjusted to approximate the tonicity of the buffer solution on the donor-side. One ml of the drug solution was pipeted onto the donor-side of the skin and 50 microliter aliguots were withdrawn from the receiver-side at the various time intervals. These samples were injected onto an HPLC column under the aforementioned conditions.
The donor solutions were prepared as 1.0 M (approximately 20% W/V) arecoline HCl or arecoline HBr in a phosphate, citrate, borate buffer adjusted to various pH values. Each flux experiment was repeated three to five times.

For COC(=O)C1=CCCN(C)C1 [arecoline], the “stability of the free base in solution” value [1] was “rapidly hydrolizes”, the “dissociation to the free base” value [2] was 99.9% and the “partition coefficient (K)” value ([3]; 0.01 M) was 0.654. For the same compound, the “partition coefficient (K)” value ([3]; 1.0 M) was 0.756, the “rate of arecoline diffusion versus pH” value ([4]; aqueous buffers, pH 6.4 to 9.0) was “increases with increasing pH values” and the “difference in rate between Caucasian and Negro skin” value ([4]; lower pH values (below 8)) was “differences were observed between these two skin types”. For the same compound, the Flux ([4]; pH 6.4 of 1M solution, skin RC (Right Chest), donor N) was 0.017 mg/cm^2 /hr, the “Mean Flux” value ([4]; pH 6.4 of 1M solution, skin donor N) was 0.017 mg/cm^2 /hr and the “Mean Flux” value ([4]; pH 7.0 of 1M solution, does not include the Negro skin) was 0.069 mg/cm^2 /hr. For the same compound, the Flux ([4]; pH 7.0 of 1M solution, skin RB (Right Back), donor C) was 0.0545 mg/cm^2 /hr. and 0.0678 mg/cm^2 /hr. and 0.0833 mg/cm^2 /hr, the Flux ([4]; pH 7.0 of 1M solution, skin RB (Right Back), donor N) was 0.0101 mg/cm^2 /hr. and 0.0057 mg/cm^2 /hr and the “Mean Flux” value ([4]; pH 7.5 of 1M solution, does not include the Negro skin) was 0.185 mg/cm^2 /hr. For the same compound, the Flux ([4]; pH 7.5 of 1M solution, skin RB (Right Back), donor C) was 0.1651 mg/cm^2 /hr. and 0.1486 mg/cm^2 /hr. and 0.2246 mg/cm^2 /hr. and 0.2003 mg/cm^2 /hr, the Flux ([4]; pH 7.5 of 1M solution, skin RB (Right Back), donor N) was 0.0383 mg/cm^2 /hr and the “Mean Flux” value ([4]; pH 8.0 of 1M solution, C and N skin) was 0.448 mg/cm^2 /hr. For the same compound, the Flux ([4]; pH 8.0 of 1M solution, skin LB (Left Back), donor C) was 0.4524 mg/cm^2 /hr. and 0.3817 mg/cm^2 /hr, the “amount transferred across skin” value ([4]; pH 9.0, across 5 cm^2 in 24 hours) was “approximately 85 mgs” and the “Mean Flux” value ([4]; pH 9.0 of 1M solution, C and N skin) was 0.837 mg/cm^2 /hr. For the same compound, the Flux ([4]; pH 9.0 of 1M solution, skin LB (Left Back), donor C) was 0.8868 mg/cm^2 /hr. and 0.8154 mg/cm^2 /hr, the Flux ([4]; pH 9.0 of 1M solution, skin RB (Right Back), donor C) was 0.8551 mg/cm^2 /hr and the “difference in rate between Caucasian and Negro skin” value ([4]; pH values of 8 and 9) was “There does not appear to be any difference in rate”.
